Source: patent US11220492B2, “Quinazoline-pyrazole derivatives for the treatment of cancer-related disorders” (ARCUS BIOSCIENCES, INC., priority 2017, dated 2022)

Experiments:
[1] = target: A2AR (Homo sapiens, UniProt P29274); test: A2AR potency (KB), Table 1; type: biochemical; conditions: read-out: Potency: A2AR KB (A2A)
[2] = target: T1, A2BR (Homo sapiens, UniProt P29275); test: A2BR potency (KB), Table 1; type: biochemical
T1 sequence (P29275 1-332): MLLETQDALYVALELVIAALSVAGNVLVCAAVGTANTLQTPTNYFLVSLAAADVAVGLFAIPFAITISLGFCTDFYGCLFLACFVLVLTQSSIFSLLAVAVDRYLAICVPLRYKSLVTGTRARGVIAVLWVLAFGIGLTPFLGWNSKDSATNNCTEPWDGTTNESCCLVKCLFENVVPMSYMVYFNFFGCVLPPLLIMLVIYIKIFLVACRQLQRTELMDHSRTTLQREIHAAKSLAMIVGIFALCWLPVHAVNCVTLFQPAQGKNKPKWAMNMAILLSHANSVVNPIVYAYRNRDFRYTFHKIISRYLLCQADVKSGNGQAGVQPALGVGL

Chain of A2AR (P29274 whole entry): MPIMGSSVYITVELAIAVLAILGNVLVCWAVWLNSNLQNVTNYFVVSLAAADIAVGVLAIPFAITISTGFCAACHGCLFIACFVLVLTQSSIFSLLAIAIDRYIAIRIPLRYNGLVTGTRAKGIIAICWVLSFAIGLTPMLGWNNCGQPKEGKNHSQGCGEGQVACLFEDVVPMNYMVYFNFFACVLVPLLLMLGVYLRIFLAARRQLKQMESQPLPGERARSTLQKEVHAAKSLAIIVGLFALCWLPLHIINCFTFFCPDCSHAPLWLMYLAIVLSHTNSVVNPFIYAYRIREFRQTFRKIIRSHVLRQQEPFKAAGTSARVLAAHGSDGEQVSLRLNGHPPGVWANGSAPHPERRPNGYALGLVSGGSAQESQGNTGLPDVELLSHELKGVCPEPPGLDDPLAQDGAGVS

SMILES	Kb [1] [nM]	Kb [2] [nM]
CC(C)(CO)n1ccc(Cn2cc(-c3nc(N)nc4c(F)cccc34)nn2)n1	< 100	< 100
COc1cccc2c(-c3cn(Cc4ccn([C@@H]5CCOC5)n4)nn3)nc(N)nc12	< 100	< 100
CC(C)n1ccc(Cn2cc(-c3cc(N)nc4c(F)cccc34)nn2)n1	< 100	< 100
COc1cccc2c(-c3cn(Cc4ccn(CC(=O)N[C@H]5CCOC5)n4)nn3)nc(N)nc12	< 100	100 to 1000
COc1cccc2c(-c3cn(Cc4ccn(CC(N)=O)n4)nn3)nc(N)nc12	< 100	< 100
COc1cccc2c(-c3cn(Cc4ccn(C(C)(C)CO)n4)nn3)nc(N)nc12	< 100	< 100
COc1cccc2c(-c3cn(Cc4ccn(CC(=O)N5CC(O)C5)n4)nn3)nc(N)nc12	< 100	< 100
CC(C)(O)Cn1ccc(Cn2cc(-c3cc(N)nc4c(F)cccc34)nn2)n1	< 100	< 100
COc1cccc2c(-c3cn(Cc4ccn(CCN5CCOCC5=O)n4)nn3)nc(N)nc12	< 100	< 100
COc1cccc2c(-c3cn(Cc4ccn(C5CC5)n4)nn3)nc(N)nc12	< 100	< 100
CCOc1cccc2c(-c3cn(Cc4ccn(C5CC5)n4)nn3)nc(N)nc12	< 100	100 to 1000
COc1cccc2c(-c3cn(Cc4ccn(C)n4)nn3)nc(N)nc12	< 100	< 100
COc1cccc2c(-c3cn(Cc4ccn(CC(C)(C)O)n4)nn3)nc(N)nc12	< 100	< 100
Nc1nc(-c2cn(Cc3ccn(C4CC4)n3)nn2)c2ccc(F)c(F)c2n1	< 100	< 100
COc1cccc2c(-c3cn(Cc4ccn([C@H]5CCOC5)n4)nn3)nc(N)nc12	< 100	< 100
COCC(C)(C)n1ccc(Cn2cc(-c3nc(N)nc4c(OC)cccc34)nn2)n1	< 100	< 100
CCn1ccc(Cn2cc(-c3nc(N)nc4c(OC)cccc34)nn2)n1	< 100	< 100
COc1cccc2c(-c3cn(Cc4ccnn4CCO)nn3)nc(N)nc12	< 100	
COc1cccc2c(-c3cn(Cc4ccnn4C)nn3)nc(N)nc12	< 100	< 100
CC(C)n1ccc(Cn2cc(-c3nc(N)nc4c(Cl)cccc34)nn2)n1	< 100	< 100
COc1c(F)ccc2c(-c3cn(Cc4ccn(C(C)(C)CO)n4)nn3)nc(N)nc12	< 100	100 to 1000

SMILES	Kb [1] [nM]	Kb [2] [nM]
CC(C)n1nccc1Cn1cc(-c2nc(N)nc3c(Cl)cccc23)nn1	< 100	< 100
CCOc1cccc2c(-c3cn(Cc4ccn(C(C)C)n4)nn3)nc(N)nc12	< 100	100 to 1000
N#Cc1ccc2c(-c3cn(Cc4ccn(C5CC5)n4)nn3)nc(N)nc2c1	< 100	< 100
COc1c(F)ccc2c(-c3cn(Cc4ccn(C(C)C)n4)nn3)nc(N)nc12	< 100	< 100
Nc1nc(-c2cn(Cc3ccn[nH]3)nn2)c2cccc(F)c2n1	< 100	< 100
COc1cccc2c(-c3cn(Cc4ccn(CCN5CCCC5=O)n4)nn3)nc(N)nc12	< 100	100 to 1000
COc1cccc2c(-c3cn(Cc4ccn(CC(=O)NCC5(O)CC5)n4)nn3)nc(N)nc12	< 100	< 100
COc1cccc2c(-c3cn(Cc4cc[nH]n4)nn3)nc(N)nc12	< 100	< 100
COc1cccc2c(-c3cn(Cc4ccn(CC(=O)N[C@@H]5CCOC5)n4)nn3)nc(N)nc12	< 100	100 to 1000
COc1cccc2c(-c3cn(Cc4ccn(C(C)C(N)=O)n4)nn3)nc(N)nc12 (stereo not shown)	< 100	< 100
COc1cccc2c(-c3cn(Cc4cc(C(C)(C)O)[nH]n4)nn3)nc(N)nc12	< 100	< 100
COc1cccc2c(-c3cn(Cc4ccnn4C(C)C)nn3)nc(N)nc12	< 100	< 100
COc1cccc2c(-c3cn(Cc4ccn(C(C)C(=O)O)n4)nn3)nc(N)nc12 (stereo not shown)	< 100	100 to 1000
COc1cccc2c(-c3cn(Cc4ccnn4CC4CCCO4)nn3)nc(N)nc12 (stereo not shown)	< 100	100 to 1000
COc1cccc2c(-c3cn(Cc4ccn(C(C)C)n4)nn3)nc(N)nc12	< 100	< 100
COc1cccc2c(-c3cn(Cc4ccn(CC5CCOCC5)n4)nn3)nc(N)nc12	< 100	< 100
COc1cccc2c(-c3cn(Cc4ccn(CC(=O)O)n4)nn3)nc(N)nc12	100 to 1000	100 to 1000
COc1cccc2c(-c3cn(Cc4ccn(C5CC5)n4)nn3)cc(N)nc12	< 100	< 100
COc1cccc2c(-c3cn(Cc4ccn(CCO)n4)nn3)nc(N)nc12	< 100	
COc1ccc2c(-c3cn(Cc4ccn(C(C)(C)CO)n4)nn3)nc(N)nc2c1	< 100	< 100
COc1c(F)ccc2c(-c3cn(Cc4ccnn4C(C)C)nn3)nc(N)nc12	< 100	< 100
